Patent US6548510B1, “Pharmaceutical composition containing deoxypeganine for the treatment of nicotine dependence” (priority 1999, dated 2003)

Assays:
[1] = test system: smokers; test: Influence of deoxypeganine on the smoking of healthy subjects; assay type: in vivo, human; conditions: for Cigarette consumption after administration of 50 mg of deoxypeganine HCl/day: subject (smoker), 50 mg/day, administration period 24 hours
Experimental: Example: Influence of deoxypeganine on the smoking of healthy subjects
In the context of the testing of a deoxypeganine-containing formulation which releases about 50 mg of deoxypeganine hydrochloride per day in vivo, in addition to other subjects two smokers were also used as test subjects, as “smoking” was not an exclusion criterion in the testing. […] The administration period was 24 hours.

[2] = molecular target: acetylcholinesterase (Homo sapiens, UniProt P22303); conditions: cited from earlier work
acetylcholinesterase, sequence (P22303 32-614, species assumed): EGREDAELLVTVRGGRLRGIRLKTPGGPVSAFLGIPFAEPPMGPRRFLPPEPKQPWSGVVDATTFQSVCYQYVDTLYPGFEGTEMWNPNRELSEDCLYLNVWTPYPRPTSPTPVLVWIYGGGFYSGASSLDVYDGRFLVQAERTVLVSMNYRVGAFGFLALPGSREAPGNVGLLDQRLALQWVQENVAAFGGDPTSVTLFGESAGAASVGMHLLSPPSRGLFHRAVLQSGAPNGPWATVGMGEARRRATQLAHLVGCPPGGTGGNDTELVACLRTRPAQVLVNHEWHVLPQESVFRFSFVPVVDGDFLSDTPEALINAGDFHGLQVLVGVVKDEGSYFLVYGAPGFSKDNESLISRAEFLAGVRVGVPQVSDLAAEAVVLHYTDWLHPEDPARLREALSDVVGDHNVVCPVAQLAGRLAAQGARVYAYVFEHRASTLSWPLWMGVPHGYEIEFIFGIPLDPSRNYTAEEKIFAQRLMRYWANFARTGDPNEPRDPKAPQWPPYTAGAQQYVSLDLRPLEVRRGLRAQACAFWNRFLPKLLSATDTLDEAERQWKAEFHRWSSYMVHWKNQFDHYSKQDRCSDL

[3] = test system: monoamine oxidase; conditions: cited from earlier work
[4] = in contrast to neostigmine; cited from earlier work

Structure (SMILES) | Cigarette consumption after administration of 50 mg of deoxypeganine HCl/day ([1]; without deoxypeganine 22 cigarettes/day (mean of n = 3)) | Cigarette consumption after administration of 50 mg of deoxypeganine HCl/day ([1]; without deoxypeganine 41 cigarettes/day (mean of n = 5)) | Desire for cigarettes ([1]; two smokers, formulation releasing about 50 mg of deoxypeganine hydrochloride per day, 24 hours) | Reduction in cigarette consumption ([1]; single administration of 50 mg/day) | Cholinesterase inhibitory action in comparison to physostigmine ([2]; based on the unit of weight) | Acetylcholinesterase inhibition ([2]; reversibly acting cholinesterase inhibitor) | Monoamine oxidase inhibition [3] | Blood-brain barrier crossing [4]
Cl.c1ccc2c(c1)CN1CCCC1=N2 [deoxypeganine HCl, deoxypeganine hydrochloride] | 3 cigarettes | 6 cigarettes | obviously suppressed |  |  |  |  | 
c1ccc2c(c1)CN1CCCC1=N2 [deoxypeganine] |  |  |  | considerable reduction | somewhat lower | inhibits | inhibits | crosses the blood-brain barrier
